In patent US20250019387A1 (Frontier Medicines Corporation, priority 0001, published 2025) one finds IC50 data, which are given here for 30 molecules.

Read-outs that look alike come from different tables or passages of the source. Bounds are passed on as bounds.

The experiment has as its target KRAS G12C and cRAF (Ras-binding domain) interaction (Homo sapiens (Human), UniProt P01116, C118S/C51S/C80L/G12C). Kind of experiment: Inhibition of KRAS G12C and cRAF binding (AlphaScreen). The essentials: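 IC50 values come from 4-parameter nonlinear regression of AlphaScreen signal (680 nm excitation, 570 nm emission). Compound plates sat 19-20 h at room temperature before RBD and donor/acceptor beads were added in Hepes pH 7.4 buffer with 150 mM NaCl, 5 mM MgCl2, 2% DMSO for 60-90 min; biotin-AviTag-GST replaced RBD to flag assay-technology interferers.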

[1] abbreviates: GMPPNP-loaded KRAS G12C, 19-20 hours incubation with compound, read-out: IC50 (Inhibition of KRAS G12C and cRAF Binding).
The mark [2] stands for this setting: additional exemplary compounds, KRAS G12C and cRAF binding, read-out: RAF1 RBD IC50.

KRAS G12C and cRAF (Ras-binding domain) interaction, sequence (P01116 other isoform, or with tags, fused parts or gaps G12C/C51S/C80L/C118S): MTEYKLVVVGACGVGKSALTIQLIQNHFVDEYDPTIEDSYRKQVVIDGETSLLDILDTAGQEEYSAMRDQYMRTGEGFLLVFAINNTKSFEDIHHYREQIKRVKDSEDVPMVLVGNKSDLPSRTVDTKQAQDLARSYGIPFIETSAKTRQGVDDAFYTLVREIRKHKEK

Take `C#Cc1c(F)ccc2cccc(-c3ncc4c(N(C)[C@@H]5CCN(C(=O)/C=C/CN6CC[C@H](F)C6)C5)nc(OC[C@@]56CCCN5C[C@H](F)C6)nc4c3F)c12` [Example 288, (E)-1-((R)-3-((7-(8-ethynyl-7-fluoronaphthalen-1-yl)-8-fluoro-2-(((2R,7aS)-2-fluorotetrahydro-1H-pyrrolizin-7a(5H)-yl)methoxy)pyrido[4,3-d]pyrimidin-4-yl)(methyl)amino)pyrrolidin-1-yl)-4-((S)-3-fluoropyrrolidin-1-yl)but-2-en-1-one]: the IC50 under setting [1] lay within 10 to 100 nM.
Consider `C=CC(=O)N1CC[C@@H](N(C)c2nc(OC[C@@]34CCCN3C[C@H](F)C4)nc3c(F)c(-c4cccc5cccc(C(F)F)c45)ncc23)C1` [Example 307, 1-((R)-3-((7-(8-(difluoromethyl)naphthalen-1-yl)-8-fluoro-2-(((2R,7aS)-2-fluorohexahydro-1H-pyrrolizin-7a-yl)methoxy)pyrido[4,3-d]pyrimidin-4-yl)(methyl)amino)pyrrolidin-1-yl)prop-2-en-1-one], for which the IC50 under setting [1] was more than 500 nM.
With `CN1CCC(C#CC(=O)N2CC[C@@H](N(C)c3nc(OC[C@@]45CCCN4C[C@H](F)C5)nc4c(F)c(-c5cccc6cccc(Cl)c56)ncc34)C2)C1` (stereo partly drawn) [Example 65, 1-((R)-3-((7-(8-chloronaphthalen-1-yl)-8-fluoro-2-(((2R,7aS)-2-fluorohexahydro-1H-pyrrolizin-7a-yl)methoxy)pyrido[4,3-d]pyrimidin-4-yl)(methyl)amino)pyrrolidin-1-yl)-3-(1-methylpyrrolidin-3-yl)prop-2-yn-1-one], under setting [1], the IC50 was in the range of 10 to 100 nM.
The same measure, in the same setting: to `C=CC(=O)N1CC[C@@H](N(C)c2nc(OC[C@@]34CCCN3C[C@H](F)C4)nc3c(F)c(-c4cccc5ccc(F)c(C)c45)ncc23)C1` [Example 195, 1-((R)-3-((8-fluoro-7-(7-fluoro-8-methylnaphthalen-1-yl)-2-(((2R,7aS)-2-fluorotetrahydro-1H-pyrrolizin-7a(5H)-yl)methoxy)pyrido[4,3-d]pyrimidin-4-yl)(methyl)amino)pyrrolidin-1-yl)prop-2-en-1-one] belongs 10 to 100 nM.
Consider `C=CC(=O)N1C[C@@H](N(C)c2nc(OCC34CCCN3CCC4)nc3c2CCN(c2cccc4cccc(Cl)c24)C3)C[C@@H]1CC#N`, for which the 50% inhibitory concentration (IC50) under setting [2] is more than 500 nM.
With `CN(CC1CN(C(=O)/C=C/c2ccncn2)C1)c1nc(OC[C@@]23CCCN2C[C@H](F)C3)nc2c1CCN(c1cccc3cccc(Cl)c13)C2` [Example 70, (E)-1-(3-(((7-(8-chloronaphthalen-1-yl)-2-(((2R,7aS)-2-fluorohexahydro-1H-pyrrolizin-7a-yl)methoxy)-5,6,7,8-tetrahydropyrido[3,4-d]pyrimidin-4-yl)(methyl)amino)methyl)azetidin-1-yl)-3-(pyrimidin-4-yl)prop-2-en-1-one], under setting [1], the half-inhibitory concentration (IC50) is 10 to 100 nM.
Same read-out and setting: to `CN(c1nc(OC[C@@]23CCCN2C[C@H](F)C3)nc2c(F)c(-c3cccc4ccc(F)c(Cl)c34)ncc12)[C@@H]1CCN(C(=O)/C=C/C2CNCCO2)C1` (stereo partly drawn) [Example 122] belongs 100 to 500 nM; to `COCCN1CC[C@@H]1/C=C/C(=O)N1CC[C@@H](N(C)c2nc(OC[C@@]34CCCN3C[C@H](F)C4)nc3c(F)c(-c4cccc5ccc(F)c(Cl)c45)ncc23)C1` [Example 212, (E)-1-((R)-3-((7-(8-chloro-7-fluoronaphthalen-1-yl)-8-fluoro-2-(((2R,7aS)-2-fluorotetrahydro-1H-pyrrolizin-7a(5H)-yl)methoxy)pyrido[4,3-d]pyrimidin-4-yl)(methyl)amino)pyrrolidin-1-yl)-3-((R)-1-(2-methoxyethyl)azetidin-2-yl)prop-2-en-1-one], 10 to 100 nM; to `C[C@@H]1C[C@@H](N(C)c2nc(OC[C@@H]3CCCN3C)nc3c2CCN(c2cccc4cccc(Cl)c24)C3)CN1C#N` [Example 38, (2R,4R)-4-((7-(8-chloronaphthalen-1-yl)-2-(((S)-1-methylpyrrolidin-2-yl)methoxy)-5,6,7,8-tetrahydropyrido[3,4-d]pyrimidin-4-yl)(methyl)amino)-2-methylpyrrolidine-1-carbonitrile], more than 500 nM.
As for `C=CC(=O)N1C[C@@H](C)C[C@@H](Nc2nc(OC[C@@]34CCCN3C[C@H](F)C4)nc3c(F)c(-c4cccc5cccc(Cl)c45)ncc23)C1`, under setting [2], the IC50 is more than 500 nM.
On to `Cc1nccc(/C=C/C(=O)N2CC[C@@H](N(C)c3nc(OC[C@@]45CCCN4C[C@H](F)C5)nc4c3CCN(c3cccc5cccc(Cl)c35)C4)C2)n1` [Example 71, (E)-1-((R)-3-((7-(8-chloronaphthalen-1-yl)-2-(((2R,7aS)-2-fluorohexahydro-1H-pyrrolizin-7a-yl)methoxy)-5,6,7,8-tetrahydropyrido[3,4-d]pyrimidin-4-yl)(methyl)amino)pyrrolidin-1-yl)-3-(2-methylpyrimidin-4-yl)prop-2-en-1-one], for which the IC50 under setting [1] was more than 500 nM.
On to `Cc1nccc(/C=C/C(=O)N2CCN(c3nc(OC[C@@]45CCCN4C[C@H](F)C5)nc4c(F)c(-c5cccc6cccc(Cl)c56)ncc34)C3CC32)n1` (stereo partly drawn), for which the IC50 under setting [2] was more than 500 nM.
The same measure, in the same setting: to `CN(C)C/C=C/C(=O)N1CC(CN(C)c2nc(OCC34CCCN3CCC4)nc3c(F)c(-c4cccc5ccc(F)c(Cl)c45)ncc23)C1` belongs 10 to 100 nM; to `C=CC(=O)N1C[C@@H](N(C)c2nc(OC[C@@]34CCCN3C[C@H](F)C4)nc3c2CCN(c2cccc4cccc(Cl)c24)C3)C[C@@H]1CC#N`, more than 500 nM.
Same read-out and setting: the same measure for `C=CC(=O)N1CC[C@@H](N(C)c2nc(OC[C@@H]3CCCN3C)nc3c(F)c(-c4cccc5cccc(Cl)c45)ncc23)C1`: more than 500 nM.
On to `C=CC(=O)[C@@H]1[C@@H]2CN(c3nc(OC[C@@H]4CCCN4C)nc4c3CCN(c3cccc5cccc(Cl)c35)C4)C[C@@H]21` [Example 45, 1-((1R,5S,6R)-3-(7-(8-chloronaphthalen-1-yl)-2-(((S)-1-methylpyrrolidin-2-yl)methoxy)-5,6,7,8-tetrahydropyrido[3,4-d]pyrimidin-4-yl)-3-azabicyclo[3.1.0]hexan-6-yl)prop-2-en-1-one], for which the IC50 under setting [1] fell in the range of 10 to 100 nM.
`C#Cc1c(F)ccc2cccc(-c3ncc4c(N(C)[C@H]5CCN(C(=O)C=C)C5)nc(OC[C@]56CCCN5C[C@H](F)C6)nc4c3F)c12`: the IC50 under setting [2] was more than 500 nM.
Consider `C=CC(=O)N1CC[C@@H](C)[C@@H](Nc2nc(OC[C@@]34CCCN3C[C@H](F)C4)nc3c(F)c(-c4cccc5cccc(Cl)c45)ncc23)C1`, for which the concentration for half-maximal inhibition (IC50) under setting [2] was more than 500 nM.
As for `C=CC(=O)N1CC(CN(C)c2nc(OC[C@@]34CCCN3C[C@H](F)C4)nc3c2CCN(c2cccc4cccc(Cl)c24)C3)C1`, under setting [2], the concentration for half-maximal inhibition (IC50) was in the range of 100 to 500 nM.
Same read-out and setting: the same measure for `CN(C)C/C=C/C(=O)N1CC(CN(C)c2nc(OCC34CCCN3CCC4)nc3c2CCN(c2cccc4cccc(Cl)c24)C3)C1`: 100 to 500 nM.
Regarding `C=CC(=O)N1CCC(N(c2nc(OCC34CCCN3CCC4)nc3c2CCN(c2cccc4cccc(Cl)c24)C3)C2CC2)C1` (stereo not drawn), the IC50 under setting [2] was more than 500 nM.
For the molecule `Cc1c(F)ccc2c(-c3ncc4c(N(C)[C@@H]5CCN(C(=O)/C=C/CN(C)C)C5)nc(OC[C@@]56CCCN5C[C@H](F)C6)nc4c3F)cccc12` [Example 281, (E)-4-(dimethylamino)-1-((R)-3-((8-fluoro-7-(6-fluoro-5-methylnaphthalen-1-yl)-2-(((2R,7aS)-2-fluorotetrahydro-1H-pyrrolizin-7a(5H)-yl)methoxy)pyrido[4,3-d]pyrimidin-4-yl)(methyl)amino)pyrrolidin-1-yl)but-2-en-1-one], under setting [1], the concentration for half-maximal inhibition (IC50) was in the range of 100 to 500 nM.
As to `CN(c1nc(OC[C@@]23CCCN2C[C@H](F)C3)nc2c(F)c(-c3cccc4ccc(F)c(Cl)c34)ncc12)[C@@H]1CCN(C(=O)/C=C/C2CNC2)C1`, the IC50 under setting [2] lay within 100 to 500 nM.
For the molecule `CN(C)C/C=C/S(=O)(=O)C1CCCN(c2nc(OCC34CCCN3CCC4)nc3c2CCN(c2cccc4cccc(Cl)c24)C3)C1` (stereo not drawn), under setting [2], the half-inhibitory concentration (IC50) is 10 to 100 nM.
Consider `CN(c1nc(OC[C@@]23CCCN2C[C@H](F)C3)nc2c(F)c(-c3cccc4cccc(Cl)c34)ncc12)[C@@H]1CCN(C(=O)C#CC2CCCN2)C1` (stereo partly drawn) [Example 59, 1-((R)-3-((7-(8-chloronaphthalen-1-yl)-8-fluoro-2-(((2R,7aS)-2-fluorotetrahydro-1H-pyrrolizin-7a(5H)-yl)methoxy)pyrido[4,3-d]pyrimidin-4-yl)(methyl)amino)pyrrolidin-1-yl)-3-(pyrrolidin-2-yl)prop-2-yn-1-one], for which the IC50 under setting [1] was less than 10 nM.
On the same count and under the same terms, the same measure for `Cc1cc(/C=C/C(=O)N2CC[C@@H](Nc3nc(OC[C@@]45CCCN4C[C@H](F)C5)nc4c(F)c(-c5cccc6ccc(F)c(F)c56)ncc34)C2)nc(C)n1` [Example 296, (E)-1-((R)-3-((7-(7,8-difluoronaphthalen-1-yl)-8-fluoro-2-(((2R,7aS)-2-fluorohexahydro-1H-pyrrolizin-7a-yl)methoxy)pyrido[4,3-d]pyrimidin-4-yl)amino)pyrrolidin-1-yl)-3-(2,6-dimethylpyrimidin-4-yl)prop-2-en-1-one]: 10 to 100 nM.
`CN(C)C/C=C/S(=O)(=O)CCN(C)c1nc(OC[C@@]23CCCN2C[C@H](F)C3)nc2c1CCN(c1cccc3cccc(Cl)c13)C2`: the IC50 under setting [2] was less than 10 nM.
The same measure, in the same setting: to `C=CC(=O)N1CC[C@@H](N(C)c2nc(OC[C@@]34CCCN3C[C@H](F)C4)nc3c(F)c(-c4cccc5cccc(Cl)c45)ncc23)C1` belongs 10 to 100 nM; to `C=CC(=O)N1CC[C@@H](N(CC(F)(F)F)c2nc(OC[C@@]34CCCN3C[C@H](F)C4)nc3c(F)c(-c4cccc5cccc(Cl)c45)ncc23)C1`, more than 500 nM.
With `CN1CCC[C@H]1COc1nc2c(c(N(C)[C@H]3CCN(C(=O)/C=C/S(C)(=O)=O)C3)n1)CCN(c1cccc3cccc(Cl)c13)C2` [Example 15, (E)-1-((S)-3-((7-(8-chloronaphthalen-1-yl)-2-(((S)-1-methylpyrrolidin-2-yl)methoxy)-5,6,7,8-tetrahydropyrido[3,4-d]pyrimidin-4-yl)(methyl)amino)pyrrolidin-1-yl)-3-(methylsulfonyl)prop-2-en-1-one], under setting [1], the half-inhibitory concentration (IC50) is less than 10 nM.

The term IC50 denotes the concentration that gives 50% inhibition.
